Laboratory results published in patent US20090203577A1 (EXELIXIS, INC., priority 2005, published 2009).
Like-named read-outs stand apart in the source and are kept apart here.

Target: T1, human farnesoid X receptor (Homo sapiens, UniProt Q96RI1)
T1 construct: CMX-farnesoid X receptor (full length human farnesoid X receptor); expressed in transfected cells; host or cells: CV-1 African Green Monkey Kidney cells
T1 sequence (Q96RI1 1-472 isoform Q96RI1-2): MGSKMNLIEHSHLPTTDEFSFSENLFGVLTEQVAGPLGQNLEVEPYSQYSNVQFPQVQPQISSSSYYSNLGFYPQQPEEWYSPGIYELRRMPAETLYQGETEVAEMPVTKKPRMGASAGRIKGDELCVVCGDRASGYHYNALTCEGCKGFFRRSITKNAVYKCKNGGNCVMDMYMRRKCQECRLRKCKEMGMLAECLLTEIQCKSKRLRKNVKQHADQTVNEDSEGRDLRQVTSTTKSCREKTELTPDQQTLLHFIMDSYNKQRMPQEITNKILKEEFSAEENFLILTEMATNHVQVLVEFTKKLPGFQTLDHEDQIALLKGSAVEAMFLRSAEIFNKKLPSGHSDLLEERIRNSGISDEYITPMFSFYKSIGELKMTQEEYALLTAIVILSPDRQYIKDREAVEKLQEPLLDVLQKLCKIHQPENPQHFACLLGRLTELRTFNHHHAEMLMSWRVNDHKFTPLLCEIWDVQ
T1 sequence (P19793 1-462 partner): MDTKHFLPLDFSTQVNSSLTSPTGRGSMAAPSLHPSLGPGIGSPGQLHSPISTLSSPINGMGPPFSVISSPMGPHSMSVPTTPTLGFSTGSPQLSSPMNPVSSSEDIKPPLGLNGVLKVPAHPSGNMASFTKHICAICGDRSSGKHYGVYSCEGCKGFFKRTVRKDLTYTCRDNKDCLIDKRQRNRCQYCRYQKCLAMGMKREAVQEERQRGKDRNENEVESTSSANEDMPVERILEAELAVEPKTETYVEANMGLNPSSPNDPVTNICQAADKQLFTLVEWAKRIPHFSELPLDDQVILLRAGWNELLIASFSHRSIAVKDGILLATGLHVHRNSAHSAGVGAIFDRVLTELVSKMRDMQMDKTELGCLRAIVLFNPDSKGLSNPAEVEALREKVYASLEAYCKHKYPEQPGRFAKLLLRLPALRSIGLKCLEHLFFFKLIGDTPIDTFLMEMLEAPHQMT
Assay: FXR in vitro assays (farnesoid X receptor/ECREx7 co-transfection assay, TR-FRET assay), Table I
Type: cell-based
Settings: for Emax: read-out: % Efficacy
Description: The basic co-transfection protocol for measuring the farnesoid X receptor activity is as follows. CV-1 African Green Monkey Kidney cells were plated 24 hours before transfection to achieve approximately 70-80 percent confluency. […] The assay was allowed to continue for an additional 18-20 hours, after which the cells were lysed, with lysis buffer (1% triton X 100, 10% glycerol, 5 mM Dithiothreitol, 1 mM EGTA, 25 mM Tricine, pH 7.8) and the luciferase activity measured in the presence of Luciferase assay buffer (0.73 mM ATP, 22.3 mm Tricine, 0.11 mM EGTA, 0.55 mM Luciferin, 0.15 mM Coenzyme A, 0.5 mM HEPES, 10 mM Magnesium sulphatc) on a standard luminometer plate reader (PE Biosystems, NorthStar Reader), using recommended operating instructions and conditions.
The dose response curves are generated from an 8 point curve with concentrations differing by ½ LOG units. Each point represents the average of 4 wells of data from a 384 well plate. A curve for the data is generated by using the equation:
Y=Bottom+(Top−Bottom)/(1+10̂((Log EC50−X)*HillSlope))
The EC50/IC50 is therefore defined as the concentration at which an agonist or antagonist elicits a response that is half way between the Top (maximum) and Bottom (baseline) values. The EC50/IC50 values represented are the averages of at least 3 independent experiments.

[1] = agonist activity, one or more of the in vitro assays, read-out: EC50

SMILES: CC(C)OC(=O)C1=CN(C(=O)c2ccc(F)c(F)c2F)CC(C)(C)c2c1[nH]c1ccccc21 [Example 77, 1-methylethyl 1,1-dimethyl-3-[(2,3,4-trifluorophenyl)carbonyl]-1,2,3,6-tetrahydroazepino[4,5-b]indole-5-carboxylate]
- EC50 [1]: 1 to 10 nM
- Emax: > 100%

SMILES: CC(C)OC(=O)C1=CN(C(=O)c2c(F)cc(F)cc2F)CC(C)(C)c2c1[nH]c1ccccc21 [Example 78, 1-methylethyl 1,1-dimethyl-3-[(2,4,6-trifluorophenyl)carbonyl]-1,2,3,6-tetrahydroazepino[4,5-b]indole-5-carboxylate]
- EC50 [1]: 10 to 100 nM
- Emax: > 100%

SMILES: CC(C)OC(=O)C1=CN(C(=O)c2cc(F)c(F)cc2F)CC(C)(C)c2c1[nH]c1ccccc21 [Example 79, 1-methylethyl 1,1-dimethyl-3-[(2,4,5-trifluorophenyl)carbonyl]-1,2,3,6-tetrahydroazepino[4,5-b]indole-5-carboxylate]
- EC50 [1]: 1 to 10 nM
- Emax: > 100%

SMILES: CC(C)OC(=O)C1=CN(C(=O)c2ccc(C(F)(F)F)c(F)c2)CC(C)(C)c2c1[nH]c1ccccc21 [Example 84, 1-methylethyl 3-{[3-fluoro-4-(trifluoromethyl)phenyl]car-bonyl}-1,1-dimethyl-1,2,3,6-tetrahydroazepino[4,5-b]indole-5-carboxylate]
- EC50 [1]: 10 to 100 nM
- Emax: > 100%

SMILES: Cc1ccc(C(=O)N2C=C(C(=O)OC(C)C)c3[nH]c4ccccc4c3C(C)(C)C2)cc1 [Example 87, 1-methylethyl 1,1-dimethyl-3-[(4-methylphenyl)carbonyl]-1,2,3,6-tetrahydroazepino[4,5-b]indole-5-carboxylate]
- EC50 [1]: 10 to 100 nM
- Emax: > 100%

SMILES: COc1cccc(C(=O)N2C=C(C(=O)OC(C)C)c3[nH]c4ccccc4c3C(C)(C)C2)c1 [Example 88, 1-methylethyl 1,1-dimethyl-3-{[3-(methyloxy)phenyl]carbonyl}-1,2,3,6-tetrahydroazepino[4,5-b]indole-5-carboxylate]
- EC50 [1]: 10 to 100 nM
- Emax: > 100%

SMILES: COc1ccc(C(=O)N2C=C(C(=O)OC(C)C)c3[nH]c4ccccc4c3C(C)(C)C2)cc1 [Example 89, 1-methylethyl 1,1-dimethyl-3-{[4-(methyloxy)phenyl)carbonyl}-1,2,3,6-tetrahydroazepino[4,5-b]indole-5-carboxylate]
- EC50 [1]: 1 to 10 nM
- Emax: > 100%

SMILES: CC(C)OC(=O)C1=CN(C(=O)c2cccc3c2OC(F)(F)O3)CC(C)(C)c2c1[nH]c1ccccc21 [Example 91, 1-methylethyl 3-[(2,2-difluoro-1,3-benzodioxol-4-yl)carbonyl]-1,1-dimethyl-1,2,3,6-tetrahydroazepino[4,5-b]indole-5-carboxylate]
- EC50 [1]: 10 to 100 nM
- Emax: > 100%

SMILES: CC(C)OC(=O)C1=CN(C(=O)c2ccc3c(c2)OC(F)(F)O3)CC(C)(C)c2c1[nH]c1ccccc21 [Example 92, 1-methylethyl 3-[(2,2-difluoro-1,3-benzodioxol-5-yl)carbonyl]-1,1-dimethyl-1,2,3,6-tetrahydroazepino[4,5-b]indole-5-carboxylate]
- EC50 [1]: 100 to 1000 nM
- Emax: > 100%

SMILES: CC(C)OC(=O)C1=CN(C(=O)c2ccc(C3CCNCC3)cc2)CC(C)(C)c2c1[nH]c1ccccc21 [Example 94, 1-methylethyl 1,1-dimethyl-3-[(4-piperidin-4-ylphenyl)carbonyl]-1,2,3,6-tetrahydroazepino[4,5-b]indole-5-carboxylate]
- EC50 [1]: > 10000 nM

SMILES: CC(C)OC(=O)C1=CN(C(=O)c2cccc(C3CCNCC3)c2)CC(C)(C)c2c1[nH]c1ccccc21 [Example 95, 1-methylethyl 1,1-dimethyl-3-[(3-piperidin-4-ylphenyl)carbonyl]-1,2,3,6-tetrahydroazepino[4,5-b]indole-5-carboxylate]
- EC50 [1]: > 10000 nM

SMILES: CCN(CC)CCNC(=O)Oc1ccc2c3c([nH]c2c1)C(C(=O)OC(C)C)=CN(C(=O)c1ccc(F)c(F)c1)CC3(C)C [Example 97, 1-methylethyl 8-[({[2-(diethylamino)ethyl]amino}carbonyl)oxy]-3-[(3,4-difluorophenyl)carbonyl]-1,1-dimethyl-1,2,3,6-tetrahydroazepino[4,5-b]indole-5-carboxylate]
- EC50: 10 to 100 nM
- Emax: > 100%

SMILES: CC(C)OC(=O)C1=CN(C(=O)c2ccc(F)c(F)c2)CC(C)(C)c2c1[nH]c1cc(OCCN(C)C)ccc21 [Example 98, 1-methylethyl 3-[(3,4-difluorophenyl)carbonyl]-8-{[2-(dimethylamino)ethyl]oxy}-1,1-dimethyl-1,2,3,6-tetrahydroazepino[4,5-b]indole-5-carboxylate]
- EC50 [1]: 100 to 1000 nM
- Emax: < 40%

SMILES: CC(C)OC(=O)C1=CN(C(=O)c2ccc(F)c(F)c2)CC(C)(C)c2c1[nH]c1cc(OCCCN(C)C)ccc21 [Example 99, 1-methylethyl 3-[(3,4-difluorophenyl)carbonyl]-8-{[3-(dimethylamino)propyl]oxy}-1,1-dimethyl-1,2,3,6-tetrahydroazepino[4,5-b]indole-5-carboxylate]
- EC50 [1]: 100 to 1000 nM
- Emax: 40 to 60%

SMILES: COc1ccc(C(=O)N2C=C(C(=O)OC(C)C)c3[nH]c4ccccc4c3C(C)(C)C2)cc1OC [Example 100, 1-methylethyl 3-{[3,4-bis(methyloxy)phenyl]car-bonyl}-1,1-dimethyl-1,2,3,6-tetrahydroazepino[4,5-b]indole-5-carboxylate]
- EC50 [1]: 10 to 100 nM
- Emax: > 100%

SMILES: CC1(C)CN(C(=O)c2ccc(F)c(F)c2)C=C(C(=O)NCCC(=O)O)c2[nH]c3ccccc3c21 [Example 101, N-({3-[(3,4-difluorophenyl)carbonyl]-1,1-dimethyl-1,2,3,6-tetrahydroazepino[4,5-b]indol-5-yl}carbonyl)-beta-alanine]
- EC50 [1]: > 10000 nM

SMILES: CNC(=O)Oc1ccc2c3c([nH]c2c1)C(C(=O)OC(C)C)=CN(C(=O)c1ccc(F)c(F)c1)CC3(C)C [Example 102, 1-methylethyl 3-[(3,4-difluorophenyl)carbonyl]-1,1-dimethyl-8-{[(methylamino)carbonyl]oxy}-1,2,3,6-tetrahydroazepino[4,5-b]indole-5-carboxylate]
- EC50: 10 to 100 nM
- Emax: < 40%

SMILES: CCN(CC)CCOc1ccc2c3c([nH]c2c1)C(C(=O)OC(C)C)=CN(C(=O)c1ccc(F)c(F)c1)CC3(C)C [Example 103, 1-methylethyl 8-{[2-(diethylamino)ethyl]oxy}-3-[(3,4-difluorophenyl)carbonyl]-1,1-dimethyl-1,2,3,6-tetrahydroazepino[4,5-b]indole-5-carboxylate]
- EC50 [1]: 100 to 1000 nM
- Emax: < 40%

SMILES: CCN(CC)CCCOc1ccc2c3c([nH]c2c1)C(C(=O)OC(C)C)=CN(C(=O)c1ccc(F)c(F)c1)CC3(C)C [Example 104]
- EC50 [1]: 100 to 1000 nM
- Emax: 60 to 80%

SMILES: COCCOc1ccc2c3c([nH]c2c1)C(C(=O)OC(C)C)=CN(C(=O)c1ccc(F)c(F)c1)CC3(C)C [Example 105, 1-methylethyl 3-[(3,4-difluorophenyl)carbonyl]-1,1-dimethyl-8-{[2-(methyloxy)ethyl]oxy}-1,2,3,6-tetrahydroazepino[4,5-b]indole-5-carboxylate]
- EC50 [1]: 100 to 1000 nM
- Emax: 80 to 100%

SMILES: CC(=O)C1=CN(C(=O)c2ccc(F)c(F)c2)CC(C)(C)c2c1[nH]c1ccccc21 [Example 106, 1-{3-[(3,4-difluorophenyl)carbonyl]-1,1-dimethyl-1,2,3,6-tetrahydroazepino[4,5-b]indol-5-yl}ethanone]
- EC50 [1]: 100 to 1000 nM
- Emax: > 100%
